Here are results for eleven compounds from patent US20080227797A1, “Pyridopyrimidine Derivatives as Pde4 Inhibitors for the Treatment of Inflammatory and Immune Diseases” (ASTRAZENECA AB, priority 2005, published 2008).

Chain of recombinant Human Phosphodiesterase B2 (PDE4B2) (Q07343 1-564 isoform Q07343-2): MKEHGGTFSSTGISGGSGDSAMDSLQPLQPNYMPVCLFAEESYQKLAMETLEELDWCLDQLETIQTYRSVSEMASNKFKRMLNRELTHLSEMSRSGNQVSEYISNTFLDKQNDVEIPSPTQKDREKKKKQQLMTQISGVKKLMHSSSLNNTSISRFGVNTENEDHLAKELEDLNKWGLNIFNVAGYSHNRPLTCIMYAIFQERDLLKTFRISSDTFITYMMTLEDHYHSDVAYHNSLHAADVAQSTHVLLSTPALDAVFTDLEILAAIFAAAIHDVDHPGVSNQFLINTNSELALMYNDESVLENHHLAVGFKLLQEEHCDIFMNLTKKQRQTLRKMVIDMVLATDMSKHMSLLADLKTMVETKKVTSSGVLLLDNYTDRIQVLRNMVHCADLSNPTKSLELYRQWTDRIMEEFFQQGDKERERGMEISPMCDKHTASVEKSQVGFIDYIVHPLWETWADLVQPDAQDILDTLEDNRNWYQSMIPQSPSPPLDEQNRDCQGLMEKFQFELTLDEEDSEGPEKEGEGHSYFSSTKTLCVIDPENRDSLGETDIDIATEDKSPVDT

The test concerns the target recombinant Human Phosphodiesterase B2 (PDE4B2) (Homo sapiens, UniProt Q07343). In words: Human Phosphodiesterase B2 Alpha Screen Assay. As to conditions: cAMP substrate, Alpha Screen cAMP kit, 60 minutes at room temperature. Type of test: biochemical. The procedure, abridged:
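Recombinant human PDE4B2 preincubated 15 min at RT with compound in 50 mM Tris pH 7.5, 8.3 mM MgCl2, 1.7 mM EGTA, 0.01% Brij35, then reacted with cAMP for 60 min at RT. Stopped with EDTA; AlphaScreen beads with biotinylated cAMP incubated 5 h in the dark before reading. IC50 from curve fitting.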
With `CS(=O)(=O)N[C@H]1CC[C@@H](n2c(=O)c3cc(F)cnc3n(-c3ccc(F)c(F)c3)c2=O)CC1` [Example 47, N-{cis-4-[1-(3,4-Difluorophenyl)-6-fluoro-2,4-dioxo-1,4-dihydropyrido[2,3-d]pyrimidin-3(2H)-yl]cyclohexyl}methanesulfonamide], the IC50 worked out at 60.1 nM.

As for `CSc1cccc(-n2c(=O)n([C@H]3CC[C@@H](NC(=O)[C@@H](O)c4ccccc4)CC3)c(=O)c3cc(F)cnc32)c1` [Example 38, (2S)-N-{cis-4-[6-fluoro-1-[3-(methylthio)phenyl]-2,4-dioxo-1,4-dihydropyrido[2,3-d]pyrimidin-3(2H)-yl]cyclohexyl}-2-hydroxy-2-phenylacetamide], the IC50 was below 16 nM. For the compound `O=C(c1n[nH]c2ccccc12)N1CCC(n2c(=O)c3cc(F)cnc3n(-c3ccc(F)c(F)c3)c2=O)CC1` [Example 76, 1-(3,4-difluorophenyl)-6-fluoro-3-[1-(1H-indazol-3-ylcarbonyl)piperidin-4-yl]pyrido[2,3-d]pyrimidine-2,4(1H,3H)-dione], the IC50 came out at 9.5 nM. Take `COCC(=O)N[C@H]1CC[C@@H](n2c(=O)c3cc(F)cnc3n(-c3cccc(C(=O)OC)c3)c2=O)CC1` [Example 65, methyl 3-[6-fluoro-3-{cis-4-[(methoxyacetyl)amino]cyclohexyl}-2,4-dioxo-3,4-dihydropyrido[2,3-d]pyrimidin-1(2H)-yl]benzoate]: the IC50 was 11.1 nM. With `O=C(N[C@H]1CC[C@@H](n2c(=O)c3cc(F)cnc3n(-c3ccc(F)c(F)c3)c2=O)CC1)c1cc2nccnc2s1` [Example 106, N-{cis-4-[1-(3,4-difluorophenyl)-6-fluoro-2,4-dioxo-1,4-dihydropyrido[2,3-d]pyrimidin-3(2H)-yl]cyclohexyl}thieno[2,3-b]pyrazine-6-carboxamide], the IC50 came out at 3.89 nM. Under `O=C(CCc1cccc(O)c1)N[C@H]1CC[C@@H](n2c(=O)c3cc(F)cnc3n(-c3ccc(F)c(F)c3)c2=O)CC1` [Example 31, N-{cis-4-[1-(3,4-difluorophenyl)-6-fluoro-2,4-dioxo-1,4-dihydropyrido[2,3-d]pyrimidin-3(2H)-yl]cyclohexyl}-3-(3-hydroxyphenyl)propanamide] stands 1.5 nM; under `C#Cc1ccc(C(=O)N[C@H]2CC[C@@H](n3c(=O)c4cc(F)cnc4n(-c4ccc(F)c(F)c4)c3=O)CC2)cc1` [Example 102, N-{cis-4-[1-(3,4-difluorophenyl)-6-fluoro-2,4-dioxo-1,4-dihydropyrido[2,3-d]pyrimidin-3(2H)-yl]cyclohexyl}-4-ethynylbenzamide], 1 nM; under `CSc1cccc(-n2c(=O)n([C@H]3CC[C@@H](NC(=O)c4ccccc4)CC3)c(=O)c3cc(F)cnc32)c1` [Example 57, N-{cis-4-[6-fluoro-1-[3-(methylthio)phenyl]-2,4-dioxo-1,4-dihydropyrido[2,3-d]pyrimidin-3(2H)-yl]cyclohexyl}benzamide], 4.2 nM. The value for `CSc1cccc(-n2c(=O)n([C@H]3CC[C@@H](NC(=O)C4CCCC4)CC3)c(=O)c3cc(F)cnc32)c1` [Example 58, N-{cis-4-[6-fluoro-1-[3-(methylthio)phenyl]-2,4-dioxo-1,4-dihydropyrido[2,3-d]pyrimidin-3(2H)-yl]cyclohexyl}cyclopentanecarboxamide] was 3.9 nM. Turning to `O=C(N[C@H]1CC[C@@H](n2c(=O)c3cc(F)cnc3n(-c3ccc(F)c(F)c3)c2=O)CC1)C1(O)CC1` [Example 52, N-{cis-4-[1-(3,4-difluorophenyl)-6-fluoro-2,4-dioxo-1,4-dihydropyrido[2,3-d]pyrimidin-3(2H)-yl]cyclohexyl}-1-hydroxycyclopropanecarboxamide], the IC50 worked out at 18.6 nM.

Consider `COC(=O)c1ccccc1C(=O)N[C@H]1CC[C@@H](n2c(=O)c3cc(F)cnc3n(-c3ccc(F)c(F)c3)c2=O)CC1` [Example 7, methyl 2-[({cis-4-[1-(3,4-difluorophenyl)-6-fluoro-2,4-dioxo-1,4-dihydropyrido[2,3-d]pyrimidin-3(2H)-yl]cyclohexyl}amino)carbonyl]benzoate], for which the IC50 stood at 3 nM.

Usually IC50 stands for the midpoint of a concentration-inhibition curve.
